Test results as given in US5968737A, “Method of identifying inhibitors of glutathione S-transferase (GST) gene expression” (The University of Mississippi, priority 1996, dated 1999).
Like-named read-outs stand apart in the source and are kept apart here.

Tests used:
[1] = test system: RAR-β levels in MGR-3 cells; experiment: Induction of RAR-β in nuclear extracts of RA-treated MGR-3 cells (immunoprecipitation); assay type: cell-based; details: Homo sapiens, 48-hr exposure, read-out: increase in RAR-β levels compared to untreated controls
[2] = test system: GST-π gene expression in MGR-3 cells; experiment: Retinoic acid effect on GST-π gene expression in tumor cells (Northern and Western blotting); assay type: cell-based; details: Homo sapiens
Method: Retinoic acid effect on GST-π gene expression in tumor cells. To further determine the functionality of the RAREs in GST-π gene of MGR-3 cell line, we examined changes in GST-π gene transcripts in MGR-3 cells after exposure to RA. For this study, MGR-3 cells in exponential growth were treated with 1 μM all-trans RA. Another set cultures without RA treatment served as controls. After 24 and 48 hrs incubation at 37° C., total RNA was extracted and GST-π gene transcript levels were determined by Northern blotting, as described earlier. Alterations in GST-π protein content was determined in cells similarly treated with 1 μM all-trans RA. Cultures were harvested after 0, 12, 24 and 48 hrs post-RA exposure, cell extracts prepared from them, as previously described, and subjected to Western blotting with anti-GST-π antibodies.

[3] = target: T1, human GST-π variant GSTP1c-1c, recombinant, encoded by hGSTP1*C (Ile104→Val104, Ala113→Val113; SEQ ID NO:7 and SEQ ID NO:8) (Homo sapiens, UniProt P09211, A114V/I105V); experiment: Enzyme kinetics: catalysis of the conjugation of GSH with CDNB by purified recombinant GST-π protein; assay type: biochemical; details: 25° C., 0.1M K-phosphate buffer pH 8.3, 2.5 mM GSH
T1 construct: made in house; host or cells: E. coli (XL1 Blue, pBK-CMV vector)
T1 sequence (P09211 2-210 I105V/A114V): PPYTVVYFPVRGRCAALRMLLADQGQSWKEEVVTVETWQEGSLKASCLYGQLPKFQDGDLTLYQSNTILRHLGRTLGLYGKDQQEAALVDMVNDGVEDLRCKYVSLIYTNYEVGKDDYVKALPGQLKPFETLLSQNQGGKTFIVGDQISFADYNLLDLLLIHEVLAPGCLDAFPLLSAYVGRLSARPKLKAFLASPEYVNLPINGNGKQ
Method: (§1) FIGS. 8A-C. Lineweaver-Burke plots for the catalysis of the conjugation of GSH with CDNB by GSH-affinity chromatography purified recombinant GSTP1a-1a (FIG. 8A), GSTP1b-1b (FIG. 8B) and GSTP1c-1c (FIG. 8C). Reaction rates were determined with 2.5 mM GSH and 0.015 unit of each enzyme.
(§2) Purification and enzyme kinetic analysis of variant GST-π proteins. Functional consequences of the structural differences in the GST-π variant proteins was determined by the differential ability of the recombinant GST-π proteins to catalyze the conjugation of GSH with 1-chloro-2,4-dinitrobenzene (CDNB), a universal GST substrate. After expression in E. coli, the three GST-π proteins were purified by GSH-affinity chromatography on S-hexyl glutathione linked to epoxy-activated sepharose 6B, as previously described (Simons and Van der Jagt, 1981) and then used for enzyme kinetic analysis. Reaction mixtures (25° C.) in 100 mM potassium phosphate buffer, pH 8.3 contained 0.5-2.5 mM CDNB, 2.5 mM GSH and 0.015 unit of purified GST-π protein. The change in absorbance was monitored at 340 nm over two minutes and used to compute reaction rates. The rates of the spontaneous reactions of GSH with CDNB, determined with reaction mixtures in which the GST-π enzyme was replaced with buffer, were subtracted from the rates of the enzyme catalyzed reactions. The resulting reaction rates were used to generate double reciprocal plots from which Vmax and Km values were determined, using standard methodology (Segel, 1976).

[4] = target: T2, human GST-π GSTP1a-1a, recombinant, encoded by hGSTP1*A (Ile104, Ala113; SEQ ID NO:3 and SEQ ID NO:4) (Homo sapiens, UniProt P09211); experiment: as above; assay type: biochemical; details: 25° C., 0.1M K-phosphate buffer pH 8.3, 2.5 mM GSH
T2 construct: made in house; host or cells: E. coli (XL1 Blue, pBK-CMV vector)
T2 sequence (P09211 2-210 limits assumed): as the sequence (P09211 2-210 I105V/A114V) above, with V104I, V113A counted along it
Method: as §1, §2

[5] = target: T3, human GST-π variant GSTP1b-1b, recombinant, encoded by hGSTP1*B (Ile104→Val104; SEQ ID NO:5 and SEQ ID NO:6) (Homo sapiens, UniProt P09211, I105V); experiment: as above; assay type: biochemical; details: 25° C., 0.1M K-phosphate buffer pH 8.3, 2.5 mM GSH
T3 construct: made in house; host or cells: E. coli (XL1 Blue, pBK-CMV vector)
T3 sequence (P09211 2-210 I105V): as the sequence (P09211 2-210 I105V/A114V) above, with V113A counted along it
Method: as §1, §2

[6] = listed as 1-Chloro-2,4-dinitrobenzene

SMILES | fold induction at 1 µM [1] | fold induction at 1 µM ([2]; 1.0 μM, 48 hr, Northern analysis, read-out: increase in the level of GST-π gene transcripts relative to control levels (maximum)) | fold induction at 1 µM ([2]; 1 μM, 48 hrs, Western blot, read-out: increase in GST-π protein content relative to untreated controls) | Vmax (CDNB) [3] [µmol/min/mg] | Km ([3]; 0.5-2.5 mM CDNB) [µM] | Vmax (CDNB) [3, 6] [µmol/min/mg] | Vmax (CDNB) [4] [µmol/min/mg] | Km ([4]; 0.5-2.5 mM CDNB) [µM] | Vmax (CDNB) [4, 6] [µmol/min/mg] | Vmax (CDNB) [5] [µmol/min/mg] | Km ([5]; 0.5-2.5 mM CDNB) [µM] | Vmax (CDNB) [5, 6] [µmol/min/mg]
CC1=C(/C=C/C(C)=C/C=C/C(C)=C/C(=O)O)C(C)(C)CCC1 [all-trans retinoic acid] | > 3 | 3.4 | 2.8 | – | – | – | – | – | – | – | – | –
O=[N+]([O-])c1ccc(Cl)c([N+](=O)[O-])c1 [CDNB, 1-chloro-2,4-dinitrobenzene] | – | – | – | 1.4 ± 0.23 | 3100 ± 170 | 1.4 ± 0.23 | 4.7 ± 0.03 | 980 | 4.7 ± 0.03 | 1.7 ± 0.087 | 2700 ± 23 | 1.6 ± 0.087
